{"source": "patent US20260285850A1", "about": "“SUBSTITUTED OXAZOLIDINONES AND IMIDAZOLINONES AS HERBICIDES” (FMC CORPORATION, priority 2023, published 2026)", "assay_type_in_all_cases": "in vivo", "key": {"[1]": {"test_system": "palmer (palmer amaranth, palmer pigweed, Amaranthus palmeri)", "test": "Test A postemergence application, visual injury rating 0-100", "details": "10 days", "summary_of_the_method": "(§1)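 Rating: visual, day 10, untreated plants as reference, 0 no effect to 100 full control. Plants were in loam-sand and were treated either preemergence via directed soil spray or postemergence at the one- to two-leaf stage.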"}, "[2]": {"test_system": "blackgrass (Alopecurus myosuroides)", "test": "Test A postemergence application, visual injury rating 0-100", "details": "10 days", "summary_of_the_method": "as §1"}, "[3]": {"test_system": "ryegrass, Italian (italian ryegrass, Lolium multiflorum)", "test": "Test A postemergence application, visual injury rating 0-100", "details": "10 days", "summary_of_the_method": "as §1"}, "[4]": {"test_system": "horseweed (Erigeron canadensis)", "test": "Test A postemergence application, visual injury rating 0-100", "details": "10 days", "summary_of_the_method": "as §1"}, "[5]": {"test_system": "galium (catchweed bedstraw, Galium aparine)", "test": "Test A postemergence application, visual injury rating 0-100", "details": "10 days", "summary_of_the_method": "as §1"}, "[6]": {"test_system": "ragweed (common ragweed, Ambrosia artemisiifolia)", "test": "Test A postemergence application, visual injury rating 0-100", "details": "10 days", "summary_of_the_method": "as §1"}, "kochia (Bassia scoparia) [7]": {"test_system": "kochia (Bassia scoparia)", "test": "Test A postemergence application, visual injury rating 0-100", "details": "10 days", "summary_of_the_method": "as §1"}, "[8]": {"test_system": "barnyardgrass (Echinochloa crus-galli)", "test": "Test A postemergence application, visual injury rating 0-100", "details": "10 days", "summary_of_the_method": "as §1"}, "[9]": {"test_system": "wheat (Triticum aestivum)", "test": "Test A postemergence application, visual injury rating 0-100", "details": "10 days", "summary_of_the_method": "as §1"}, "corn (Zea mays) [10]": {"test_system": "corn (Zea mays)", "test": "Test A postemergence application, visual injury rating 0-100", "details": "10 days", "summary_of_the_method": "as §1"}, "[11]": {"test_system": "green foxtail (Setaria viridis)", "test": "Test A postemergence application, visual injury rating 0-100", "details": "10 days", "summary_of_the_method": "as §1"}, "[12]": {"test_system": "oat, wild (wild oat, Avena fatua)", "test": "Test A postemergence application, visual injury rating 0-100", "details": "10 days", "summary_of_the_method": "as §1"}, "soybean (Glycine max) [13]": {"test_system": "soybean (Glycine max)", "test": "Test A postemergence application, visual injury rating 0-100", "details": "10 days", "summary_of_the_method": "as §1"}, "[14]": {"test_system": "palmer (palmer amaranth, palmer pigweed, Amaranthus palmeri)", "test": "Test A preemergence soil spray, visual injury rating 0-100", "details": "10 days, 0 = no effect, 100 = complete control", "summary_of_the_method": "as §1"}, "[15]": {"test_system": "blackgrass (Alopecurus myosuroides)", "test": "Test A preemergence soil spray, visual injury rating 0-100", "details": "10 days, 0 = no effect, 100 = complete control", "summary_of_the_method": "as §1"}, "[16]": {"test_system": "ryegrass, Italian (italian ryegrass, Lolium multiflorum)", "test": "Test A preemergence soil spray, visual injury rating 0-100", "details": "10 days, 0 = no effect, 100 = complete control", "summary_of_the_method": "as §1"}, "[17]": {"test_system": "ragweed (common ragweed, Ambrosia artemisiifolia)", "test": "Test A preemergence soil spray, visual injury rating 0-100", "details": "10 days, 0 = no effect, 100 = complete control", "summary_of_the_method": "as §1"}, "kochia (Bassia scoparia) [18]": {"test_system": "kochia (Bassia scoparia)", "test": "Test A preemergence soil spray, visual injury rating 0-100", "details": "10 days, 0 = no effect, 100 = complete control", "summary_of_the_method": "as §1"}, "[19]": {"test_system": "barnyardgrass (Echinochloa crus-galli)", "test": "Test A preemergence soil spray, visual injury rating 0-100", "details": "10 days, 0 = no effect, 100 = complete control", "summary_of_the_method": "as §1"}, "[20]": {"test_system": "wheat (Triticum aestivum)", "test": "Test A preemergence soil spray, visual injury rating 0-100", "details": "10 days, 0 = no effect, 100 = complete control", "summary_of_the_method": "as §1"}, "corn (Zea mays) [21]": {"test_system": "corn (Zea mays)", "test": "Test A preemergence soil spray, visual injury rating 0-100", "details": "10 days, 0 = no effect, 100 = complete control", "summary_of_the_method": "as §1"}, "[22]": {"test_system": "green foxtail (Setaria viridis)", "test": "Test A preemergence soil spray, visual injury rating 0-100", "details": "10 days, 0 = no effect, 100 = complete control", "summary_of_the_method": "as §1"}, "[23]": {"test_system": "oat, wild (wild oat, Avena fatua)", "test": "Test A preemergence soil spray, visual injury rating 0-100", "details": "10 days, 0 = no effect, 100 = complete control", "summary_of_the_method": "as §1"}, "soybean (Glycine max) [24]": {"test_system": "soybean (Glycine max)", "test": "Test A preemergence soil spray, visual injury rating 0-100", "details": "10 days, 0 = no effect, 100 = complete control", "summary_of_the_method": "as §1"}, "rice (Oryza sativa)": {"test_system": "rice (Oryza sativa)", "test": "Test B flooded paddy test, visual plant response rating 0-100", "details": "250 g ai/ha, Flood, applied to paddy water, evaluated after 13 days", "summary_of_the_method": "(§2)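 2-leaf plants; flood 3 cm over soil; compound dosed into paddy water; depth kept constant; greenhouse 13 d; visual scoring vs controls. Dash = no result.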"}, "[25]": {"test_system": "ducksalad (Heteranthera limosa)", "test": "Test B flooded paddy test, visual plant response rating 0-100", "details": "250 g ai/ha, Flood, applied to paddy water, evaluated after 13 days", "summary_of_the_method": "as §2"}, "[26]": {"test_system": "sedge, umbrella (small-flower umbrella sedge, Cyperus difformis)", "test": "Test B flooded paddy test, visual plant response rating 0-100", "details": "250 g ai/ha, Flood, applied to paddy water, evaluated after 13 days", "summary_of_the_method": "as §2"}, "[27]": {"test_system": "barnyardgrass (Echinochloa crusgalli)", "test": "Test B flooded paddy test, visual plant response rating 0-100", "details": "250 g ai/ha, Flood, applied to paddy water, evaluated after 13 days", "summary_of_the_method": "as §2"}, "[28]": {"details": "31 g ai/ha, postemergence, 0 = no effect, 100 = complete control"}, "[29]": {"details": "Postemergence, 125 g ai/ha, 0 is no effect, 100 is complete control"}}}
{"smiles": "CC1(C(=O)NC2CCC(C(=O)NS(C)(=O)=O)C2)CN(c2cc(F)cc(F)c2)C(=O)O1", "note": "(stereo not shown) [Compound 13]", "values": [{"measurement": "Amaranth, Palmer plant response rating (0-100)", "setting": "[1]; [28]", "value": 10}, {"measurement": "Amaranth, Palmer / Pigweed, Palmer plant response rating (0 to 100 scale)", "setting": "[1]; [29]", "value": 90}, {"measurement": "Blackgrass plant response rating (0-100)", "setting": "[2]; [28]", "value": 10}, {"measurement": "Blackgrass plant response rating (0 to 100 scale)", "setting": "[2]; [29]", "value": 60}, {"measurement": "Ryegrass, Italian plant response rating (0-100)", "setting": "[3]; [28]", "value": 20}, {"measurement": "Ryegrass, Italian plant response rating (0 to 100 scale)", "setting": "[3]; [29]", "value": 70}, {"measurement": "Horseweed plant response rating (0-100)", "setting": "[4]; [28]", "value": 0}, {"measurement": "Horseweed plant response rating (0 to 100 scale)", "setting": "[4]; [29]", "value": 20}, {"measurement": "Galium plant response rating (0-100)", "setting": "[5]; [28]", "value": 0}, {"measurement": "Galium plant response rating (0 to 100 scale)", "setting": "[5]; [29]", "value": 70}, {"measurement": "Ragweed plant response rating (0-100)", "setting": "[6]; [28]", "value": 0}, {"measurement": "Ragweed plant response rating (0 to 100 scale)", "setting": "[6]; [29]", "value": 20}, {"measurement": "Kochia plant response rating (0-100)", "setting": "kochia (Bassia scoparia) [7]; [28]", "value": 0}, {"measurement": "Kochia plant response rating (0 to 100 scale)", "setting": "kochia (Bassia scoparia) [7]; [29]", "value": 50}, {"measurement": "Barnyardgrass plant response rating (0-100)", "setting": "[8]; [28]", "value": 10}, {"measurement": "Barnyardgrass plant response rating (0 to 100 scale)", "setting": "[8]; [29]", "value": 70}, {"measurement": "Wheat plant response rating (0-100)", "setting": "[9]; [28]", "value": 50}, {"measurement": "Wheat plant response rating (0 to 100 scale)", "setting": "[9]; [29]", "value": 70}, {"measurement": "Corn plant response rating (0-100)", "setting": "corn (Zea mays) [10]; [28]", "value": 0}, {"measurement": "Corn plant response rating (0 to 100 scale)", "setting": "corn (Zea mays) [10]; [29]", "value": 30}, {"measurement": "Foxtail, Green plant response rating (0-100)", "setting": "[11]; [28]", "value": 0}, {"measurement": "Foxtail, Green plant response rating (0 to 100 scale)", "setting": "[11]; [29]", "value": 50}, {"measurement": "Oat, Wild plant response rating (0-100)", "setting": "[12]; [28]", "value": 10}, {"measurement": "Oat, Wild plant response rating (0 to 100 scale)", "setting": "[12]; [29]", "value": 50}, {"measurement": "Soybean plant response rating (0-100)", "setting": "soybean (Glycine max) [13]; [28]", "value": 0}, {"measurement": "Soybean plant response rating (0 to 100 scale)", "setting": "soybean (Glycine max) [13]; [29]", "value": 50}, {"measurement": "Amaranth, Palmer plant response rating (0-100)", "setting": "[14]; 31 g ai/ha", "value": 0}, {"measurement": "Amaranth, Palmer plant response rating (0 to 100 scale)", "setting": "[14]; 125 g ai/ha", "value": 0}, {"measurement": "Blackgrass plant response rating (0-100)", "setting": "[15]; 31 g ai/ha", "value": 20}, {"measurement": "Blackgrass plant response rating (0 to 100 scale)", "setting": "[15]; 125 g ai/ha", "value": 50}, {"measurement": "Ryegrass, Italian plant response rating (0-100)", "setting": "[16]; 31 g ai/ha", "value": 20}, {"measurement": "Ryegrass, Italian plant response rating (0 to 100 scale)", "setting": "[16]; 125 g ai/ha", "value": 90}, {"measurement": "Ragweed plant response rating (0-100)", "setting": "[17]; 31 g ai/ha", "value": 40}, {"measurement": "Ragweed plant response rating (0 to 100 scale)", "setting": "[17]; 125 g ai/ha", "value": 20}, {"measurement": "Kochia plant response rating (0-100)", "setting": "kochia (Bassia scoparia) [18]; 31 g ai/ha", "value": 0}, {"measurement": "Kochia plant response rating (0 to 100 scale)", "setting": "kochia (Bassia scoparia) [18]; 125 g ai/ha", "value": 0}, {"measurement": "Barnyardgrass plant response rating (0-100)", "setting": "[19]; 31 g ai/ha", "value": 0}, {"measurement": "Barnyardgrass plant response rating (0 to 100 scale)", "setting": "[19]; 125 g ai/ha", "value": 20}, {"measurement": "Wheat plant response rating (0-100)", "setting": "[20]; 31 g ai/ha", "value": 0}, {"measurement": "Wheat plant response rating (0 to 100 scale)", "setting": "[20]; 125 g ai/ha", "value": 80}, {"measurement": "Corn plant response rating (0-100)", "setting": "corn (Zea mays) [21]; 31 g ai/ha", "value": 0}, {"measurement": "Corn plant response rating (0 to 100 scale)", "setting": "corn (Zea mays) [21]; 125 g ai/ha", "value": 0}, {"measurement": "Foxtail, Green plant response rating (0-100)", "setting": "[22]; 31 g ai/ha", "value": 0}, {"measurement": "Foxtail, Green plant response rating (0 to 100 scale)", "setting": "[22]; 125 g ai/ha", "value": 50}, {"measurement": "Oat, Wild plant response rating (0-100)", "setting": "[23]; 31 g ai/ha", "value": 0}, {"measurement": "Oat, Wild plant response rating (0 to 100 scale)", "setting": "[23]; 125 g ai/ha", "value": 20}, {"measurement": "Soybean plant response rating (0-100)", "setting": "soybean (Glycine max) [24]; 31 g ai/ha", "value": 0}, {"measurement": "Soybean plant response rating (0 to 100 scale)", "setting": "soybean (Glycine max) [24]; 125 g ai/ha", "value": 0}, {"measurement": "Plant response rating, Rice (0 to 100 scale, 0 is no effect and 100 is complete control)", "setting": "rice (Oryza sativa)", "value": 0}, {"measurement": "Plant response rating, Ducksalad (0 to 100 scale, 0 is no effect and 100 is complete control)", "setting": "[25]", "value": 0}, {"measurement": "Plant response rating, Sedge, Umbrella (0 to 100 scale, 0 is no effect and 100 is complete control)", "setting": "[26]", "value": 0}, {"measurement": "Plant response rating, Barnyardgrass (0 to 100 scale, 0 is no effect and 100 is complete control)", "setting": "[27]", "value": 0}]}
